# Laboratory results published in article PMC4300089, “Structure-Guided Design of Selective Epac1 and Epac2 Agonists” (PLoS Biology, 2015).
# Key:
# primary human islets = assay: Insulin secretion assay in primary human islets; assay type: cell-based; details: 25 to 100 μM; compared with Forskolin/IBMX
# Description: Islets were isolated from two human donor pancreases. Intact islets (n = 20 per well) were seeded on ultra-low attachment 96-well plate. After 3 days of culture, the pancreatic islets were washed two times with 115 mM NaCl, 5 mM KCl, 24 mM NaHCO3, 2.2 mM CaCl2, 1 mM MgCl2, 20 mM HEPES, and 0.2% human serum albumin (incubation buffer) and primed for 1.5 h at 37°C in incubation buffer supplemented with 2 mM glucose (low glucose). Subsequently, the cells were incubated in fresh incubation buffer supplemented with 2 mM glucose for 1 h to measure the basal insulin secretion levels. […] The cell supernatants were collected immediately after incubation with low and high glucose. The insulin concentrations were measured by ELISA (Insulin ELISA Kit, Mercodia). The insulin secretion was expressed as the ratio of insulin concentration at high and low glucose concentrations for each well (insulin secretion index).
# Epac2^Δ280,K450A = biological target: T1, Epac2^Δ280,K450A (Mus musculus, UniProt Q9EQZ6, K468A); assay: Epac activation assay, Epac2 K450A mutant; assay type: biochemical
# T1 construct: made in house
# T1 sequence (Q9EQZ6 281-993 isoform Q9EQZ6-3 K450A): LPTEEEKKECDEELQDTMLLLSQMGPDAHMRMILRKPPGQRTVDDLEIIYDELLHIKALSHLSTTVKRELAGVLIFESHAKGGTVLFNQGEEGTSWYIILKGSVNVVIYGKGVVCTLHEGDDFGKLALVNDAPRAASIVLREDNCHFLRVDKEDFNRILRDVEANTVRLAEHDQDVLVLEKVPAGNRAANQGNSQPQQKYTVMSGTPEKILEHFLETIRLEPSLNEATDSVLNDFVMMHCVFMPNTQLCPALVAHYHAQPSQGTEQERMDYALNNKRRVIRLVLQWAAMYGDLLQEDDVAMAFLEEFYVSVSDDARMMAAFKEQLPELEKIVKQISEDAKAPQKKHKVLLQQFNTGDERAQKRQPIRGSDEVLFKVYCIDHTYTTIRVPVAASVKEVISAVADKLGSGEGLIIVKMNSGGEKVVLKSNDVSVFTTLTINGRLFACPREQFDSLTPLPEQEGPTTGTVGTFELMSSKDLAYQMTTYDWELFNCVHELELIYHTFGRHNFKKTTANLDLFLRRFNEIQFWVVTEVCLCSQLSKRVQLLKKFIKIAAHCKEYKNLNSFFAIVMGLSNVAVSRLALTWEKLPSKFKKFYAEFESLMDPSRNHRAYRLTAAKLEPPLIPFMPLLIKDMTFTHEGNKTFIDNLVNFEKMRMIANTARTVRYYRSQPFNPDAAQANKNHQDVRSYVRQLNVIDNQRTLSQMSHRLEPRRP
# Description: Murine Epac2 was used as all previous structural studies were performed with it.
# The activity of Epac was determined by a fluorescence assay. […] The fluorescence intensity of Rap1B•mGDP is approximately twice that of free mGDP, and thus, nucleotide exchange can be observed as a decay in fluorescence upon the addition of excess unlabeled GDP.
# Epac2^fl = biological target: T2, Epac2^fl (Mus musculus, UniProt Q9EQZ6); details: footnote b, see also ref 11; cited from earlier work
# T2 sequence (Q9EQZ6 1-993 isoform Q9EQZ6-3): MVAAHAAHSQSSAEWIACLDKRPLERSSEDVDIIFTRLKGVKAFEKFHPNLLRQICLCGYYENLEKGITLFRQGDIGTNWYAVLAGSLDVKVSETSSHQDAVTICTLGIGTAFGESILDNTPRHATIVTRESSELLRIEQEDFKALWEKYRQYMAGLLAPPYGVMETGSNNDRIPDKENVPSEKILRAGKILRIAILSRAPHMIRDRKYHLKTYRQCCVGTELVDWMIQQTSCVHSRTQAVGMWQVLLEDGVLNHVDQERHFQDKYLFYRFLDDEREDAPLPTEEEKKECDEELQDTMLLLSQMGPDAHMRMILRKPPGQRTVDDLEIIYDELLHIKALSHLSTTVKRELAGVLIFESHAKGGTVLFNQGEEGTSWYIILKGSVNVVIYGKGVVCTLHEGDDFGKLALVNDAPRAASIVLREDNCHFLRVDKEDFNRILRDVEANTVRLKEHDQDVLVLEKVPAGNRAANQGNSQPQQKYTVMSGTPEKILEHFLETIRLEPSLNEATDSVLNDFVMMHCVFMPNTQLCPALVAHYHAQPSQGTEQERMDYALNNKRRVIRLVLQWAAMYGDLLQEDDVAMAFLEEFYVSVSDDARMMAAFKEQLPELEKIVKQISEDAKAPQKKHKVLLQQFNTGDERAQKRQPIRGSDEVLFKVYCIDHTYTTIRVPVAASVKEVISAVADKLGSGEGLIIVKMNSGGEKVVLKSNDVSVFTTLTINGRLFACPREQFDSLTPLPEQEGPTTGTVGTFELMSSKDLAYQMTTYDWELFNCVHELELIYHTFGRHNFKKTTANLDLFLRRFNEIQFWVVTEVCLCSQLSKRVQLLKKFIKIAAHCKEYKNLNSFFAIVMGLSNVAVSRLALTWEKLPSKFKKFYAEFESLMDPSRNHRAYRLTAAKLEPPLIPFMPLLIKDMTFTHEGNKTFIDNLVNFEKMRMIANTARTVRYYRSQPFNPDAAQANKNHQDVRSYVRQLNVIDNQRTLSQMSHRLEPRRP
SMILES,"kobs (Epac2^Δ280,K450A; 0.03 μM compound)","kobs (Epac2^Δ280,K450A; 0.05 μM compound)","kobs (Epac2^Δ280,K450A; 0.08 μM compound)","kobs (Epac2^Δ280,K450A; 0.1 μM compound)","kobs (Epac2^Δ280,K450A; 0.2 μM compound)","kobs (Epac2^Δ280,K450A; 0.3 μM compound)","kobs (Epac2^Δ280,K450A; 0.4 μM compound)","kobs (Epac2^Δ280,K450A; 0.5 μM compound)","kobs (Epac2^Δ280,K450A; 0.6 μM compound)","kobs (Epac2^Δ280,K450A; 0.7 μM compound)","kobs (Epac2^Δ280,K450A; 0.8 μM compound)","kobs (Epac2^Δ280,K450A; 1 μM compound)","kobs (Epac2^Δ280,K450A; 2 μM compound)","kobs (Epac2^Δ280,K450A; 3 μM compound)","kobs (Epac2^Δ280,K450A; 4 μM compound)","kobs (Epac2^Δ280,K450A; 5 μM compound)","kobs (Epac2^Δ280,K450A; 6 μM compound)","kobs (Epac2^Δ280,K450A; 7 μM compound)","kobs (Epac2^Δ280,K450A; 8 μM compound)","kobs (Epac2^Δ280,K450A; 10 μM compound)",other results
"Nc1ncnc2c1nc(SCc1ccccc1)n2[C@@H]1O[C@@H]2CO[P@](O)(=S)O[C@H]2[C@H]1O [S-220, Sp-8-BnT-cAMPS]",0.000139 s⁻¹,0.000199 s⁻¹,0.000277 s⁻¹,0.000306 s⁻¹,0.000564 s⁻¹,0.000705 s⁻¹,0.000743 s⁻¹,0.000763 s⁻¹,0.000845 s⁻¹,0.000882 s⁻¹,0.000882 s⁻¹,0.000894 s⁻¹,0.000904 s⁻¹,0.000886 s⁻¹,0.000912 s⁻¹,0.000879 s⁻¹,0.00102 s⁻¹,0.00106 s⁻¹,0.00109 s⁻¹,0.00103 s⁻¹,"glucose-induced insulin secretion (primary human islets): potentiates glucose-induced insulin secretion with similar efficiency; kobs (Epac2^Δ280,K450A; 0.001 μM compound): 3.1e-05 s⁻¹; kobs (Epac2^Δ280,K450A; 0.003 μM compound): 3.7e-05 s⁻¹; kobs (Epac2^Δ280,K450A; 0.005 μM compound): 4.4e-05 s⁻¹; kobs (Epac2^Δ280,K450A; 0.008 μM compound): 5.2e-05 s⁻¹; kobs (Epac2^Δ280,K450A; 0.02 μM compound): 0.00011 s⁻¹; kobs (Epac2^Δ280,K450A; 0.04 μM compound): 0.000168 s⁻¹; kobs (Epac2^Δ280,K450A; 0.06 μM compound): 0.000232 s⁻¹; kobs (Epac2^Δ280,K450A; 0.07 μM compound): 0.00026 s⁻¹; kmax-value (Epac2^Δ280,K450A; Epac2^Δ280,K450A): reduced to that of S-000"
"Nc1ncnc2c1ncn2C1OC2COP(O)(=S)OC2C1O (centres unmarked) [S-000, Sp-cAMPS]",3.7e-05 s⁻¹,4.5e-05 s⁻¹,5.2e-05 s⁻¹,,9.9e-05 s⁻¹,0.000114 s⁻¹,,0.000137 s⁻¹,0.000137 s⁻¹,0.000253 s⁻¹,0.000277 s⁻¹,0.000309 s⁻¹,0.000364 s⁻¹,0.00043 s⁻¹,0.000497 s⁻¹,0.000529 s⁻¹,0.000661 s⁻¹,0.000655 s⁻¹,0.000698 s⁻¹,0.000703 s⁻¹,"kobs (Epac2^Δ280,K450A; 0.01 μM compound): 2.9e-05 s⁻¹; kobs (Epac2^Δ280,K450A; 20 μM compound): 0.000752 s⁻¹; kobs (Epac2^Δ280,K450A; 30 μM compound): 0.000754 s⁻¹; kobs (Epac2^Δ280,K450A; 40 μM compound): 0.000809 s⁻¹; kobs (Epac2^Δ280,K450A; 50 μM compound): 0.000778 s⁻¹; kobs (Epac2^Δ280,K450A; 60 μM compound): 0.000824 s⁻¹; kobs (Epac2^Δ280,K450A; 70 μM compound): 0.000828 s⁻¹; kobs (Epac2^Δ280,K450A; 80 μM compound): 0.000833 s⁻¹; kobs (Epac2^Δ280,K450A; 100 μM compound): 0.000821 s⁻¹"
"Nc1ncnc2c1ncn2[C@@H]1O[C@@H]2COP(=O)(O)O[C@H]2[C@H]1O [cAMP, reference compound]",,4e-05 s⁻¹,5.02e-05 s⁻¹,5.2e-05 s⁻¹,8.53e-05 s⁻¹,0.000105 s⁻¹,0.000119 s⁻¹,0.000137 s⁻¹,0.000149 s⁻¹,0.000155 s⁻¹,0.000159 s⁻¹,0.000183 s⁻¹,0.000228 s⁻¹,0.000276 s⁻¹,0.000288 s⁻¹,0.000293 s⁻¹,0.0003 s⁻¹,0.000286 s⁻¹,0.0003 s⁻¹,0.000289 s⁻¹,"Rel. kmax (Epac2^fl): 1.0^b; kobs (Epac2^Δ280,K450A; 0.01 μM compound): 2.72e-05 s⁻¹; kobs (Epac2^Δ280,K450A; 20 μM compound): 0.000309 s⁻¹; kobs (Epac2^Δ280,K450A; 30 μM compound): 0.000319 s⁻¹; kobs (Epac2^Δ280,K450A; 40 μM compound): 0.000313 s⁻¹; kobs (Epac2^Δ280,K450A; 50 μM compound): 0.000318 s⁻¹; kobs (Epac2^Δ280,K450A; 60 μM compound): 0.00031 s⁻¹; kobs (Epac2^Δ280,K450A; 70 μM compound): 0.000323 s⁻¹; kobs (Epac2^Δ280,K450A; 80 μM compound): 0.000319 s⁻¹; kobs (Epac2^Δ280,K450A; 100 μM compound): 0.000327 s⁻¹"
